Values quoted from earlier work, collected in article PMC11212004 (Pharmacology Research & Perspectives, 2024).

Tests used:
[1] = collagen‐induced arthritis (CIA) model

## CCC(=O)Nc1ccc(Cl)c(Cl)c1 [DCPA, 3,4‐dichloropropionanilide]
Orai calcium channel
  Orai calcium channel antagonism: functions as an Orai calcium channel antagonist
osteoclasts
  mineral resorption by osteoclasts in vitro: inhibits mineral resorption
[1]
  bone erosion and cartilage damage: reduces bone erosion and cartilage damage
Jurkat cells
  IL‐2 secretion: decreased NFAT‐dependent IL‐2 secretion
